Laboratory results from article PMC12211128, “Safety, tolerability, pharmacokinetic and pharmacodynamic effects of the muscarinic M1 positive allosteric modulator VU0467319 for Alzheimer’s disease: a single ascending-dose study in healthy participants” (Alzheimer's Research & Therapy, 2025).

What was measured:
healthy participants [1] = assay: Selective Reminding Task (SRT); assay type: in vivo, human; details: for SRT Delayed Recall / SRT Immediate Recall / SRT Recall Consistency / SRT Recall Failure: mean (SD)
Excerpt: The Selective Reminding Task (SRT; [36]) was used to test immediate and delayed episodic memory. Participants were read a list of 16 words and must immediately recall the list across eight trials, then again after a 20-minute delay. The outcome measures were the SRT total immediate recall across the eight trials, recall consistency as the number of words correctly recalled on two sequential trials, recall failure as the number of words not recalled on two sequential trials, and the delayed recall after the 20-min delay.
(§1) Cognitive data: In this exploratory analysis, each outcome variable of the cognitive data was examined in a mixed model analysis of variance with one between-subjects factor of VU319 dose (0, 60, 120, 240, 400, 600 mg) and a within-subjects factor of testing session (pre-dose vs. post-dost administration). Post-hoc analysis compared each of the VU319 dose cohorts against the placebo group. Because the participants were healthy adults with normal cognitive function, we considered effects between no reductions in function to small improvement (d = 0.0–0.20) to be a positive result. For the food effect study, only the participants who received VU319 were examined due to the disproportionately small placebo group (n = 2). A within-subjects ANOVA including food condition (fasted/fed) and testing session (pre-dose vs. post-dose administration) was performed on each outcome variable.
The Selective Reminding Task (SRT; (Buschke & Fuld, 1974)) was used to test immediate and delayed episodic recall. Participants were read a list of 16 words and must immediately recall the list across 8 trials. […] Upon completing the immediate recall portion of the SRT and after a 20‐minute delay, participants were asked to complete a single delayed recall trial. SRT total immediate recall was analyzed using the number of correctly recalled words across trials 1–8, total immediate recall consistency was analyzed using the number of words correctly recalled on two sequential trials across trials 1–8, SRT total immediate recall failure was analyzed using the number of words not recalled on two sequential trials across trials 1–8, and total delayed recall was analyzed using the number of words correctly recalled after a 20-min delay.

healthy participants [2] = assay: Critical flicker fusion task (CFF); assay type: in vivo, human; details: for CFF Median Ascending score / CFF Median Descending score: mean (SD)
Excerpt: The critical flicker fusion task (CFF; [30]) was used to test perceptual vigilance using the frequency of a flickering LED (between 12 and 50 Hz). The outcome variable for CFF is frequency (Hz) for ascending and descending trials. In the ascending trials, the participants pressed a button indicating when the light flickered to a speed where they appear to be continuously on or fused. In the descending trials, the participants pressed a button when the frequency of apparently fused lights is decreased such that lights begin to appear to be flashing.
as §1
The critical flicker fusion task (CFF; (Kupke & Lewis, 1989)) was used to test perceptual vigilance using the frequency of a flickering LED (between 12-50 Hz). The outcome variable for CFF is frequency (Hz) for ascending and descending trials. In the ascending trials, the participants pressed a button indicating when the light flickered to a speed where they appear to be continuously on or fused. In the descending trials, the participants pressed a button when the frequency of apparently fused lights is decreased such that lights begin to appear to be flashing.

[3] = Food effect study 120 mg, Fasting, Post-Drug
[4] = Food effect study 120 mg, Fasting, Pre-Drug
[5] = Food effect study 120 mg, Fed, Post-Drug
[6] = Food effect study 120 mg, Fed, Pre-Drug

SMILES: Cn1cc2c(-c3cc(F)c(CN4Cc5ncccc5C4=O)c(F)c3)cccc2n1 [VU319]
- SRT Delayed Recall (healthy participants [1]; [3]): 11.3 (3.97)
- SRT Immediate Recall (healthy participants [1]; [3]): 88.9 (19.83)
- SRT Recall Consistency (healthy participants [1]; [3]): 55.7 (26.22)
- SRT Recall Failure (healthy participants [1]; [3]): 10.2 (9.74)
- SRT Delayed Recall (healthy participants [1]; [4]): 11.5 (3.69)
- SRT Immediate Recall (healthy participants [1]; [4]): 86.6 (17.61)
- SRT Recall Consistency (healthy participants [1]; [4]): 51.1 (24.64)
- SRT Recall Failure (healthy participants [1]; [4]): 9.4 (8.54)
- SRT Delayed Recall (healthy participants [1]; [5]): 10.9 (3.92)
- SRT Immediate Recall (healthy participants [1]; [5]): 88.9 (20.45)
- SRT Recall Consistency (healthy participants [1]; [5]): 53.4 (27.22)
- SRT Recall Failure (healthy participants [1]; [5]): 8.3 (10.58)
- SRT Delayed Recall (healthy participants [1]; [6]): 11.2 (3.33)
- SRT Immediate Recall (healthy participants [1]; [6]): 88.7 (13.59)
- SRT Recall Consistency (healthy participants [1]; [6]): 54 (18.33)
- SRT Recall Failure (healthy participants [1]; [6]): 8 (6.11)
- SRT Delayed Recall (healthy participants [1]; SAD study, 60 mg, Post-Drug): 8.83 (3.55)
- SRT Immediate Recall (healthy participants [1]; SAD study, 60 mg, Post-Drug): 71.67 (14.95)
- SRT Recall Consistency (healthy participants [1]; SAD study, 60 mg, Post-Drug): 35.33 (18.32)
- SRT Recall Failure (healthy participants [1]; SAD study, 60 mg, Post-Drug): 19.83 (9.37)
- SRT Delayed Recall (healthy participants [1]; SAD study, 60 mg, Pre-Drug): 9 (3.52)
- SRT Immediate Recall (healthy participants [1]; SAD study, 60 mg, Pre-Drug): 79.83 (13.18)
- SRT Recall Consistency (healthy participants [1]; SAD study, 60 mg, Pre-Drug): 44 (22.93)
- SRT Recall Failure (healthy participants [1]; SAD study, 60 mg, Pre-Drug): 13.5 (4.46)
- SRT Delayed Recall (healthy participants [1]; SAD study, 120 mg, Post-Drug): 9.5 (5.86)
- SRT Immediate Recall (healthy participants [1]; SAD study, 120 mg, Post-Drug): 84 (19.55)
- SRT Recall Consistency (healthy participants [1]; SAD study, 120 mg, Post-Drug): 49.33 (25.15)
- SRT Recall Failure (healthy participants [1]; SAD study, 120 mg, Post-Drug): 12.5 (10.78)
- SRT Delayed Recall (healthy participants [1]; SAD study, 120 mg, Pre-Drug): 10.17 (5.42)
- SRT Immediate Recall (healthy participants [1]; SAD study, 120 mg, Pre-Drug): 84.67 (20.24)
- SRT Recall Consistency (healthy participants [1]; SAD study, 120 mg, Pre-Drug): 51.67 (27.6)
- SRT Recall Failure (healthy participants [1]; SAD study, 120 mg, Pre-Drug): 13 (9.76)
- SRT Delayed Recall (healthy participants [1]; SAD study, 240 mg, Post-Drug): 9 (2.45)
- SRT Immediate Recall (healthy participants [1]; SAD study, 240 mg, Post-Drug): 80.67 (13.65)
- SRT Recall Consistency (healthy participants [1]; SAD study, 240 mg, Post-Drug): 41.5 (16.11)
- SRT Recall Failure (healthy participants [1]; SAD study, 240 mg, Post-Drug): 10.83 (10.83)
- SRT Delayed Recall (healthy participants [1]; SAD study, 240 mg, Pre-Drug): 10.67 (1.86)
- SRT Immediate Recall (healthy participants [1]; SAD study, 240 mg, Pre-Drug): 87.33 (11.38)
- SRT Recall Consistency (healthy participants [1]; SAD study, 240 mg, Pre-Drug): 54.33 (13.31)
- SRT Recall Failure (healthy participants [1]; SAD study, 240 mg, Pre-Drug): 10.83 (7.73)
- SRT Delayed Recall (healthy participants [1]; SAD study, 400 mg, Post-Drug): 7.83 (3.87)
- SRT Immediate Recall (healthy participants [1]; SAD study, 400 mg, Post-Drug): 70.83 (16.03)
- SRT Recall Consistency (healthy participants [1]; SAD study, 400 mg, Post-Drug): 33.33 (18.24)
- SRT Recall Failure (healthy participants [1]; SAD study, 400 mg, Post-Drug): 20 (11.15)
- SRT Delayed Recall (healthy participants [1]; SAD study, 400 mg, Pre-Drug): 8.83 (4.79)
- SRT Immediate Recall (healthy participants [1]; SAD study, 400 mg, Pre-Drug): 76.33 (24.51)
- SRT Recall Consistency (healthy participants [1]; SAD study, 400 mg, Pre-Drug): 42.33 (29.85)
- SRT Recall Failure (healthy participants [1]; SAD study, 400 mg, Pre-Drug): 19 (15.66)
- SRT Delayed Recall (healthy participants [1]; SAD study, 600 mg, Post-Drug): 8.67 (4.8)
- SRT Immediate Recall (healthy participants [1]; SAD study, 600 mg, Post-Drug): 85.83 (21.7)
- SRT Recall Consistency (healthy participants [1]; SAD study, 600 mg, Post-Drug): 51 (27.8)
- SRT Recall Failure (healthy participants [1]; SAD study, 600 mg, Post-Drug): 10.67 (12.58)
- SRT Delayed Recall (healthy participants [1]; SAD study, 600 mg, Pre-Drug): 11.83 (1.94)
- SRT Immediate Recall (healthy participants [1]; SAD study, 600 mg, Pre-Drug): 91.17 (11.81)
- SRT Recall Consistency (healthy participants [1]; SAD study, 600 mg, Pre-Drug): 59.83 (13.39)
- SRT Recall Failure (healthy participants [1]; SAD study, 600 mg, Pre-Drug): 8.17 (5.27)
- SRT four outcome measures, effect of dose (healthy participants [1]; SAD study, all p > 0.2): did not show a significant effect of dose, nor dose by time
- SRT performance, effect of food or time (healthy participants [1]; food effect study, 120 mg): no impact of food or time
- CFF Median Ascending score (healthy participants [2]; [3]): 39.03 (5.2) Hz
- CFF Median Descending score (healthy participants [2]; [3]): 38.59 (4.57) Hz
- CFF Median Ascending score (healthy participants [2]; [4]): 34.62 (9.06) Hz
- CFF Median Descending score (healthy participants [2]; [4]): 38.49 (5.19) Hz
- CFF Median Ascending score (healthy participants [2]; [5]): 39.29 (4.38) Hz
- CFF Median Descending score (healthy participants [2]; [5]): 39.36 (4.08) Hz
- CFF Median Ascending score (healthy participants [2]; [6]): 39.09 (5.81) Hz
- CFF Median Descending score (healthy participants [2]; [6]): 39.25 (3.25) Hz
- CFF Median Ascending score (healthy participants [2]; SAD study, 60 mg, Post-Drug): 37.67 (3.1) Hz
- CFF Median Descending score (healthy participants [2]; SAD study, 60 mg, Post-Drug): 38.32 (7.51) Hz
- CFF Median Ascending score (healthy participants [2]; SAD study, 60 mg, Pre-Drug): 36.32 (4.6) Hz
- CFF Median Descending score (healthy participants [2]; SAD study, 60 mg, Pre-Drug): 37 (5.35) Hz
- CFF Median Ascending score (healthy participants [2]; SAD study, 120 mg, Post-Drug): 36.53 (3.87) Hz
- CFF Median Descending score (healthy participants [2]; SAD study, 120 mg, Post-Drug): 38.68 (3.31) Hz
- CFF Median Ascending score (healthy participants [2]; SAD study, 120 mg, Pre-Drug): 37.33 (2.38) Hz
- CFF Median Descending score (healthy participants [2]; SAD study, 120 mg, Pre-Drug): 40.23 (4.95) Hz
- CFF Median Ascending score (healthy participants [2]; SAD study, 240 mg, Post-Drug): 38.12 (4.1) Hz
- CFF Median Descending score (healthy participants [2]; SAD study, 240 mg, Post-Drug): 37.25 (6.89) Hz
- CFF Median Ascending score (healthy participants [2]; SAD study, 240 mg, Pre-Drug): 32.72 (9.97) Hz
- CFF Median Descending score (healthy participants [2]; SAD study, 240 mg, Pre-Drug): 37.1 (6.52) Hz
- CFF Median Ascending score (healthy participants [2]; SAD study, 400 mg, Post-Drug): 39.98 (3.97) Hz
- CFF Median Descending score (healthy participants [2]; SAD study, 400 mg, Post-Drug): 40.05 (3.01) Hz
- CFF Median Ascending score (healthy participants [2]; SAD study, 400 mg, Pre-Drug): 37.92 (3.7) Hz
- CFF Median Descending score (healthy participants [2]; SAD study, 400 mg, Pre-Drug): 39.67 (2.1) Hz
- CFF Median Ascending score (healthy participants [2]; SAD study, 600 mg, Post-Drug): 36.58 (3.14) Hz
- CFF Median Descending score (healthy participants [2]; SAD study, 600 mg, Post-Drug): 39.73 (5.18) Hz
- CFF Median Ascending score (healthy participants [2]; SAD study, 600 mg, Pre-Drug): 35.45 (3.61) Hz
- CFF Median Descending score (healthy participants [2]; SAD study, 600 mg, Pre-Drug): 39.22 (5.92) Hz
- CFF ascending trial, effect of dose (healthy participants [2]; SAD study, both p > 0.3): no effect of dose, nor a dose by time interaction
- CFF ascending condition, post- vs pre-dose, effect size d (healthy participants [2]; food effect study, 120 mg, p = 0.07): 1.37
